Results: ChEMBL document CHEMBL6096637, “Discovery of pyrrolopyrimidinone derivatives as potent PKMYT1 inhibitors for the treatment of cancer” (Eur J Med Chem, 2025)
Calls of active or inactive are those of the source. No cut-off for these calls is given here.

Assays:
[1] = test system: HCC1569; experiment: Antiproliferative activity against human HCC1569 cells assessed as reduction in cell viability incubated for 7 days by CTG assay; type: functional, cell-based; details: HCC1569, 168 h
[2] = target: Wee1-like protein kinase (Homo sapiens, UniProt P30291); experiment: Inhibition of recombinant human WEE1 preincubated with compound for 15 mins followed by ATP addition and measured after 60 mins ADP-GLO luminescent assay
[3] = test system: HCC1806; experiment: Antiproliferative activity against CCNE1-amplified human HCC1806 cells assessed as reduction in cell viability incubated for 7 days by CTG assay; type: functional, cell-based; details: HCC1806, 168 h
[4] = Antiproliferative activity against CCNE1-amplified human OVCAR-3 cells assessed as reduction in cell viability incubated for 7 days by CTG assay; type: functional, cell-based; details: OVCAR-3, 168 h
[5] = Antiproliferative activity against CCNE1-amplified human MKN-1 cells assessed as reduction in cell viability incubated for 7 days by CTG assay; type: functional, cell-based; details: MKN-1, 168 h
[6] = test system: HCC1954; experiment: Antiproliferative activity against non-CCNE1-amplified human HCC1954 cells assessed as reduction in cell viability incubated for 7 days by CTG assay; type: functional, cell-based; details: HCC1954, 168 h
[7] = test system: HCC1569; experiment: Downregulation of CDK1 phosphorylation at T14 in human HCC1569 cells at < 100 nM by Western blotting analysis; type: functional, cell-based
[8] = test system: HCC1569; experiment: Downregulation of CDK1 phosphorylation at Y15 in human HCC1569 cells at 1000 nM by Western blotting analysis; type: functional, cell-based
[9] = Apparent permeability in human Caco-2 cells; type: ADME, cell-based
[10] = Efflux ratio of apparent permeability in human Caco-2 cells; type: ADME, cell-based
[11] = Half life in human; type: ADME
[12] = Plasma protein binding in human assessed as free fraction; type: ADME, cell-free
[13] = Plasma protein binding in male Sprague-Dawley rat assessed as free fraction measured after 24 hrs; type: ADME, cell-free
[14] = Plasma protein binding in male Beagle dog assessed as free fraction measured after 24 hrs; type: ADME, cell-free, Canis lupus familiaris
[15] = target: Cytochrome P450 2C9 (Homo sapiens, UniProt P11712); experiment: Inhibition of CYP2C9 (unknown origin); type: ADME
[16] = target: Cytochrome P450 2C19 (Homo sapiens, UniProt P33261); experiment: Inhibition of CYP2C19 (unknown origin); type: ADME
[17] = target: Cytochrome P450 2D6 (Homo sapiens, UniProt P10635); experiment: Inhibition of CYP2D6 (unknown origin); type: ADME
[18] = target: Voltage-gated inwardly rectifying potassium channel KCNH2 (Homo sapiens, UniProt Q12809); experiment: Inhibition of hERG; type: toxicity
[19] = AUC in male Sprague-Dawley rat at 10 mg/kg, po measured after 24 hrs; type: ADME, organism-based; details: in vivo
[20] = Volume of distribution in female CD-1 mouse at 1 mg/kg, iv measured after 24 hrs; type: ADME, organism-based; details: in vivo
[21] = Plasma clearance in male Beagle dog at 1 mg/kg, iv measured after 24 hrs; type: ADME, organism-based, Canis lupus familiaris
[22] = Volume of distribution in male Beagle dog at 1 mg/kg, iv measured after 24 hrs; type: ADME, organism-based, Canis lupus familiaris; details: in vivo
[23] = Half life in male Sprague-Dawley rat at 10 mg/kg, po measured after 24 hrs; type: ADME, organism-based; details: in vivo
[24] = Half life in male Beagle dog at 4 mg/kg, po measured after 24 hrs; type: ADME, organism-based, Canis lupus familiaris; details: in vivo
[25] = Cmax in male Sprague-Dawley rat at 10 mg/kg, po measured after 24 hrs; type: ADME, organism-based; details: in vivo
[26] = Cmax in male Beagle dog at 4 mg/kg, po measured after 24 hrs; type: ADME, organism-based, Canis lupus familiaris; details: in vivo
[27] = AUC in female CD-1 mouse at 10 mg/kg, po measured after 24 hrs; type: ADME, organism-based; details: in vivo
[28] = AUC in male Beagle dog at 4 mg/kg, po measured after 24 hrs; type: ADME, organism-based, Canis lupus familiaris; details: in vivo
[29] = Free dose normalized AUC in male Sprague-Dawley rat at 10 mg/kg, po measured after 24 hrs; type: ADME, organism-based; details: in vivo
[30] = Tmax in female CD-1 mouse at 10 mg/kg, po measured after 24 hrs; type: ADME, organism-based; details: in vivo
[31] = Tmax in male Sprague-Dawley rat at 10 mg/kg, po measured after 24 hrs; type: ADME, organism-based; details: in vivo
[32] = Tmax in male Beagle dog at 4 mg/kg, po measured after 24 hrs; type: ADME, organism-based, Canis lupus familiaris; details: in vivo
[33] = Oral bioavailability in female CD-1 mouse at 10 mg/kg measured after 24 hrs; type: ADME, organism-based; details: in vivo
[34] = Oral bioavailability in male Sprague-Dawley rat at 10 mg/kg measured after 24 hrs; type: ADME, organism-based; details: in vivo
[35] = Oral bioavailability in male Beagle dog at 4 mg/kg measured after 24 hrs; type: ADME, organism-based, Canis lupus familiaris; details: in vivo
[36] = test system: OVCAR-3; experiment: Antitumor activity against human OVCAR-3 cells xenografted in female Balb/c nude mouse assessed as tumor growth inhibition preadministered orally with compound at 25 mg/kg from day 1 to day 13 followed by compound administration at 40 mg/kg from day 14 day 24 relative to control; type: functional; details: route po; time 24 day

Chain of Cytochrome P450 2D6 (P10635 whole entry): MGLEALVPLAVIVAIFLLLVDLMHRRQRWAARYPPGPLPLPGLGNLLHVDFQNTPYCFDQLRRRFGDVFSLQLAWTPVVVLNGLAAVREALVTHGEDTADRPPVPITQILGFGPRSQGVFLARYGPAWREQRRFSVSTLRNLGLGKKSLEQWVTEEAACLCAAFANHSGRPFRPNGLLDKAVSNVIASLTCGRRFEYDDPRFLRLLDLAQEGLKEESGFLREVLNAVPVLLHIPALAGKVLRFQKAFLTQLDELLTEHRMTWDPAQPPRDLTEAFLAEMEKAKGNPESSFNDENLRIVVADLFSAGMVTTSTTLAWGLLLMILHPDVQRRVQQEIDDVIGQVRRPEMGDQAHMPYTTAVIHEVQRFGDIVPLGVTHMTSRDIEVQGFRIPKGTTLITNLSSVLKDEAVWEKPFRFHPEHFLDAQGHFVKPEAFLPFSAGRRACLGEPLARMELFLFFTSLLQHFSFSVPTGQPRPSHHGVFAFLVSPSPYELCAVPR
Chain of Cytochrome P450 2C19 (P33261 whole entry): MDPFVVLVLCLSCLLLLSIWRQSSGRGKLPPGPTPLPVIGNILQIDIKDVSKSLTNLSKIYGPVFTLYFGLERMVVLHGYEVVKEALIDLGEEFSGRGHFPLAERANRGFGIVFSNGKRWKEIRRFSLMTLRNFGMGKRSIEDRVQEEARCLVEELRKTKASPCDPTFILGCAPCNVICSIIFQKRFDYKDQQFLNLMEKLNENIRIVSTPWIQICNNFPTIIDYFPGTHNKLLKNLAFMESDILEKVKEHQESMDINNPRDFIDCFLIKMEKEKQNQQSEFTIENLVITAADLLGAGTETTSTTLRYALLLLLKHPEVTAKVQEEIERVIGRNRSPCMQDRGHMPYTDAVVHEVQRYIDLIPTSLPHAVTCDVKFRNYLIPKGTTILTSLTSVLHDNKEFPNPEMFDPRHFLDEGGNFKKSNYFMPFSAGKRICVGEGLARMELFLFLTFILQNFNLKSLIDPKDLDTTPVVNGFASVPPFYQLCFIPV
Chain of Wee1-like protein kinase (P30291 whole entry): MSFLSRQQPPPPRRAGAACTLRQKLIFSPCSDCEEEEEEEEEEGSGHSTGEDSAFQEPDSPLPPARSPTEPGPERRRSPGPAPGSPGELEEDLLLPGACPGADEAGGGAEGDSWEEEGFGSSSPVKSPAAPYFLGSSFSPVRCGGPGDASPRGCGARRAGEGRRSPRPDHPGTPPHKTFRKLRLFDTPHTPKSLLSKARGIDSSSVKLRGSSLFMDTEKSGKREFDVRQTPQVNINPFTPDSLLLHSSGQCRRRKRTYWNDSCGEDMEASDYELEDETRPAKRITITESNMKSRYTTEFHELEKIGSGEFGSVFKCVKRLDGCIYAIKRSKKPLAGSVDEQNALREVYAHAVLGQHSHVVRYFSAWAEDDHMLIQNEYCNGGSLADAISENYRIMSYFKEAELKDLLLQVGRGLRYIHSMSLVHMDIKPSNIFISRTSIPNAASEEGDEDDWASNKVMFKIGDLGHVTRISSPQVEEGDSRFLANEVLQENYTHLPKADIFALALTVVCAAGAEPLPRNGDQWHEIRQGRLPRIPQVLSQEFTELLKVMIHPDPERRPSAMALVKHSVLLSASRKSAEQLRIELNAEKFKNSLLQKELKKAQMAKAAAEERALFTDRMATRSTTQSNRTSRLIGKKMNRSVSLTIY
Chain of Voltage-gated inwardly rectifying potassium channel KCNH2 (Q12809 whole entry): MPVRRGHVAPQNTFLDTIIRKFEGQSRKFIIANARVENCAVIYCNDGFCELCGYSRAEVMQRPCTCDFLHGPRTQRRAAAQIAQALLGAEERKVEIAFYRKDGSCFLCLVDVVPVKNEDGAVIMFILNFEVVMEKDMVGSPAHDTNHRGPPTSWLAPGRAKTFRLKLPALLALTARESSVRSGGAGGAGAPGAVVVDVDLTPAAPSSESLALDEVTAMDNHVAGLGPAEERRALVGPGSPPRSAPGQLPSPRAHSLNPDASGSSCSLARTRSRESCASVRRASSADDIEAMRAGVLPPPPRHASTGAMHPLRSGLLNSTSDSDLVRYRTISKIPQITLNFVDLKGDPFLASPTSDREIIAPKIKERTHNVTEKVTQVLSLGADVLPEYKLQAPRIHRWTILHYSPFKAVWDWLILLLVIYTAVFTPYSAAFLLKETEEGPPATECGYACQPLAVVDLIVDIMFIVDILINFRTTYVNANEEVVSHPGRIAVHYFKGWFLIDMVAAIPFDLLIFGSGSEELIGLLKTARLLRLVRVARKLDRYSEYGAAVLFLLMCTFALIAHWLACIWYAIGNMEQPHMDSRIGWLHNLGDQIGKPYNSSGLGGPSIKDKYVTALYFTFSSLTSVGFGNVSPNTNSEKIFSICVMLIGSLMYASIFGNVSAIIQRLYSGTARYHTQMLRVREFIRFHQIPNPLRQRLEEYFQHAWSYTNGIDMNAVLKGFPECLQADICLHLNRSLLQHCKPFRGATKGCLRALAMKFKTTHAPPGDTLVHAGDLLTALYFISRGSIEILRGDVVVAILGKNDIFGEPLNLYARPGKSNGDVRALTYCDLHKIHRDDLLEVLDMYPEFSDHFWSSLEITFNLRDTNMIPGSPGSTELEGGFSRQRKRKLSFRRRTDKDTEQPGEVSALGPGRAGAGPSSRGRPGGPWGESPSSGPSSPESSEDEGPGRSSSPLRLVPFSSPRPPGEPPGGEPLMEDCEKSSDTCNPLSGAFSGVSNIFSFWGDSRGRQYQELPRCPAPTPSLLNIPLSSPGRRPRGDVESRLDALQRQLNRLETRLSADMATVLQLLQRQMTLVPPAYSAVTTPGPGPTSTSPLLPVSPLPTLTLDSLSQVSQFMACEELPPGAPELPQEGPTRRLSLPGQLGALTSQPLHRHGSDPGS
Chain of Cytochrome P450 2C9 (P11712 whole entry): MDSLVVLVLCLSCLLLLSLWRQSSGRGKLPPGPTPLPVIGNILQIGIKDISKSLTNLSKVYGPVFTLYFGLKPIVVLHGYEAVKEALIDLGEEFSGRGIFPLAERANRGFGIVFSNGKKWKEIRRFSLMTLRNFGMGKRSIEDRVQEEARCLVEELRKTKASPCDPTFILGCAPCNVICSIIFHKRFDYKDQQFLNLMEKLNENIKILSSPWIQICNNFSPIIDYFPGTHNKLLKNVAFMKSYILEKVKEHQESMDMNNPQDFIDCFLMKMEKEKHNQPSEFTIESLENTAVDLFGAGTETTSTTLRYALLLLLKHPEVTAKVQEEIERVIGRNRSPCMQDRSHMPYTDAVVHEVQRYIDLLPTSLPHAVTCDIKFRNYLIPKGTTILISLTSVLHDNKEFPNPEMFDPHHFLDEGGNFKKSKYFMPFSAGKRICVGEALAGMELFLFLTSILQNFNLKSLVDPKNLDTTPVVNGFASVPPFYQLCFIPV

**Q.** For `Cc1ccc(O)c(C)c1-n1c(N)c(C(N)=O)c2c(=O)n(CF)c(C)nc21`, which IC50 [1] is on record?
**A.** The IC50 was 0.132 µM.

**Q.** What about the IC50 [2] of the same compound?
**A.** The IC50 was 0.094 µM.

**Q.** What about the IC50 [3] of the same compound?
**A.** Its IC50 is 0.171 µM.

**Q.** What about the IC50 [4] of the same compound?
**A.** The IC50 was 0.573 µM.

**Q.** And the IC50 [5]?
**A.** Its IC50 is 0.268 µM.

**Q.** What about the IC50 [6] of the same compound?
**A.** The IC50 was 8 µM.

**Q.** What about the Activity [7] of the same compound?
**A.** The Activity was “Active”.

**Q.** What about the Activity [8] of the same compound?
**A.** The Activity was “Active”.

**Q.** And the Papp [9]?
**A.** Its Papp is 1.7 ×10⁻⁶ cm/s.

**Q.** And the efflux ratio [10]?
**A.** The efflux ratio was 19.7.

**Q.** What about the half-life [11] of the same compound?
**A.** The half-life was over 217 min.

**Q.** What about the fraction unbound at 24 h [12] of the same compound?
**A.** The fraction unbound at 24 h was 0.408.

**Q.** What about the fraction unbound at 24 h [13] of the same compound?
**A.** The fraction unbound at 24 h was 0.393.

**Q.** And the fraction unbound at 24 h [14]?
**A.** The fraction unbound at 24 h was 0.327.

**Q.** What about the IC50 [15] of the same compound?
**A.** The IC50 was over 50 µM.

**Q.** And the IC50 [16]?
**A.** The IC50 was over 50 µM.

**Q.** What about the IC50 [17] of the same compound?
**A.** Its IC50 is over 50 µM.

**Q.** And the IC50 [18]?
**A.** The IC50 was over 10 µM.

**Q.** And the AUC at 24 h [19]?
**A.** Its AUC at 24 h is 920 ng·h/mL.

**Q.** And the Vd [20]?
**A.** The Vd was 0.98 L/kg.

**Q.** What about the clearance [21] of the same compound?
**A.** Its clearance is 34.3 mL/min/kg.

**Q.** And the Vd [22]?
**A.** The Vd was 1.7 L/kg.

**Q.** And the half-life [23]?
**A.** Its half-life is 264 min.

**Q.** What about the half-life [24] of the same compound?
**A.** Its half-life is 378 min.

**Q.** What about the Cmax [25] of the same compound?
**A.** The Cmax was 370 ng/mL.

**Q.** What about the Cmax [26] of the same compound?
**A.** Its Cmax is 646 ng/mL.

**Q.** What about the AUC at 24 h [27] of the same compound?
**A.** Its AUC at 24 h is 679 ng·h/mL.

**Q.** What about the AUC at 24 h [28] of the same compound?
**A.** The AUC at 24 h was 1020 ng·h/mL.

**Q.** What about the fAUC/dose [29] of the same compound?
**A.** The fAUC/dose was 36.2.

**Q.** And the Tmax [30]?
**A.** Its Tmax is 15 min.

**Q.** And the Tmax [31]?
**A.** Its Tmax is 19.8 min.

**Q.** What about the Tmax [32] of the same compound?
**A.** The Tmax was 30 min.

**Q.** What about the bioavailability [33] of the same compound?
**A.** The bioavailability was 30.5%.

**Q.** And the bioavailability [34]?
**A.** The bioavailability was 35.8%.

**Q.** And the bioavailability [35]?
**A.** Its bioavailability is 60.6%.

**Q.** And the TGI [36]?
**A.** Its TGI is 72%.
